Data: patent publication US11178873B2, “Cyclic N-carboxamide compounds useful as herbicides” (FMC CORPORATION, priority 2015, dated 2021)

How the values were obtained:
Format in all cases: in vivo
[1] = system: ryegrass, Italian (Italian ryegrass, Lolium multiflorum); assay: Test A preemergence, ryegrass, Italian; settings: 0 to 100 scale, 0 no effect, 100 complete control
From the text: (§1) Seeds of plant species selected from barnyardgrass (Echinochloa crus-galli), crabgrass, large (large crabgrass, Digitaria sanguinalis), kochia (Kochia scoparia), ragweed (common ragweed, Ambrosia elatior), morningglory (Ipomoea spp.), velvetleaf (Abutilon theophrasti), ryegrass, Italian (Italian ryegrass, Lolium multiflorum), foxtail, giant (giant foxtail, Setaria faberii), wheat (Triticum aestivum), corn (Zea mays), and pigweed (Amaranthus retroflexus), were planted into a blend of loam soil and sand and treated preemergence with a directed soil spray using test chemicals formulated in a non-phytotoxic solvent mixture which included a surfactant. At the same time, plants selected from these crop and weed species and also blackgrass (Alopecurus myosuroides), and galium (catchweed bedstraw, Galium aparine), were planted in pots containing the same blend of loam soil and sand and treated with postemergence applications of test chemicals formulated in the same manner. Plants ranged in height from 2 to 10 cm and were in the one- to two-leaf stage for the postemergence treatment. Treated plants and untreated controls were maintained in a greenhouse for approximately 10 d, after which time all treated plants were compared to untreated controls and visually evaluated for injury. Plant response ratings, summarized in Table A, are based on a 0 to 100 scale where 0 is no effect and 100 is complete control. A dash (-) response means no test result.

[2] = system: sedge, umbrella (small-flower umbrella sedge, Cyperus difformis); assay: Test B flooded paddy test, sedge, umbrella; settings: Flood, 500 g ai/ha; scale 0 to 100 (0 no effect, 100 complete control); 13 to 15 d
Procedure: (§2) Plant species in the flooded paddy test selected from rice (Oryza sativa), sedge, umbrella (small-flower umbrella sedge, Cyperus difformis), ducksalad (Heteranthera limosa), and barnyardgrass (Echinochloa crus-galli) were grown to the 2-leaf stage for testing. At time of treatment, test pots were flooded to 3 cm above the soil surface, treated by application of test compounds directly to the paddy water, and then maintained at that water depth for the duration of the test. Treated plants and controls were maintained in a greenhouse for 13 to 15 d, after which time all species were compared to controls and visually evaluated. Plant response ratings, summarized in Table B, are based on a scale of 0 to 100 where 0 is no effect and 100 is complete control. A dash (-) response means no test result.

kochia (Kochia scoparia) [3] = assay: Test A preemergence, kochia; settings: 0 to 100 scale, 0 no effect, 100 complete control
From the text: as §1

[4] = system: galium (catchweed bedstraw, Galium aparine); assay: Test A postemergence, galium; settings: 0 to 100 scale, 0 no effect, 100 complete control
From the text: as §1

[5] = system: foxtail, giant (giant foxtail, Setaria faberii); assay: Test A postemergence, foxtail, giant; settings: 0 to 100 scale, 0 no effect, 100 complete control
From the text: as §1

[6] = system: ragweed (common ragweed, Ambrosia elatior); assay: Test A postemergence, ragweed; settings: 0 to 100 scale, 0 no effect, 100 complete control
From the text: as §1

[7] = system: barnyardgrass (Echinochloa crus-galli); assay: Test A postemergence, barnyardgrass; settings: 0 to 100 scale, 0 no effect, 100 complete control
From the text: as §1

[8] = system: ducksalad (Heteranthera limosa); assay: Test B flooded paddy test, ducksalad; settings: Flood, 500 g ai/ha; scale 0 to 100 (0 no effect, 100 complete control); 13 to 15 d
Procedure: as §2

[9] = system: wheat (Triticum aestivum); assay: Test A postemergence, wheat; settings: 0 to 100 scale, 0 no effect, 100 complete control
From the text: as §1

[10] = system: ragweed (common ragweed, Ambrosia elatior); assay: Test A preemergence, ragweed; settings: 0 to 100 scale, 0 no effect, 100 complete control
From the text: as §1

corn (Zea mays) = assay: Test A postemergence, corn; settings: 0 to 100 scale, 0 no effect, 100 complete control
From the text: as §1

rice (Oryza sativa) = assay: Test B flooded paddy test, rice; settings: Flood, 500 g ai/ha; scale 0 to 100 (0 no effect, 100 complete control); 13 to 15 d
Procedure: as §2

[11] = system: pigweed (Amaranthus retroflexus); assay: Test A postemergence, pigweed; settings: 0 to 100 scale, 0 no effect, 100 complete control
From the text: as §1

[12] = system: foxtail, giant (giant foxtail, Setaria faberii); assay: Test A preemergence, foxtail, giant; settings: 0 to 100 scale, 0 no effect, 100 complete control
From the text: as §1

[13] = system: barnyardgrass (Echinochloa crus-galli); assay: Test A preemergence, barnyardgrass; settings: 0 to 100 scale, 0 no effect, 100 complete control
From the text: as §1

[14] = system: blackgrass (Alopecurus myosuroides); assay: Test A postemergence, blackgrass; settings: 0 to 100 scale, 0 no effect, 100 complete control
From the text: as §1

[15] = system: pigweed (Amaranthus retroflexus); assay: Test A preemergence, pigweed; settings: 0 to 100 scale, 0 no effect, 100 complete control
From the text: as §1

[16] = system: ryegrass, Italian (Italian ryegrass, Lolium multiflorum); assay: Test A postemergence, ryegrass, Italian; settings: 0 to 100 scale, 0 no effect, 100 complete control
From the text: as §1

kochia (Kochia scoparia) [17] = assay: Test A postemergence, kochia; settings: 0 to 100 scale, 0 no effect, 100 complete control
From the text: as §1

[18] = system: barnyardgrass (Echinochloa crus-galli); assay: Test B flooded paddy test, barnyardgrass; settings: Flood, 500 g ai/ha; scale 0 to 100 (0 no effect, 100 complete control); 13 to 15 d
Procedure: as §2

O=C1NCC(c2ccc(F)c(F)c2)N1C(=O)Nc1ccccc1Cl (stereo not drawn) [Compound 9]
Plant response rating, Ryegrass, Italian ([1]; 125 g ai/ha): 0
Plant response rating, Ryegrass, Italian ([1]; 500 g ai/ha): 0
Plant response rating, Sedge, Umbrella [2]: 0
Plant response rating, Kochia (kochia (Kochia scoparia) [3]; 125 g ai/ha): 0
Plant response rating, Kochia (kochia (Kochia scoparia) [3]; 500 g ai/ha): 0
Plant response rating, Galium ([4]; 125 g ai/ha): 0
Plant response rating, Galium ([4]; 500 g ai/ha): 0
Plant response rating, Foxtail, Giant ([5]; 125 g ai/ha): 0
Plant response rating, Foxtail, Giant ([5]; 500 g ai/ha): 0
Plant response rating, Ragweed ([6]; 125 g ai/ha): 0
Plant response rating, Ragweed ([6]; 500 g ai/ha): 0
Plant response rating, Barnyardgrass ([7]; 125 g ai/ha): 0
Plant response rating, Barnyardgrass ([7]; 500 g ai/ha): 0
Plant response rating, Ducksalad [8]: 0
Plant response rating, Wheat ([9]; 125 g ai/ha): 0
Plant response rating, Wheat ([9]; 500 g ai/ha): 0
Plant response rating, Ragweed ([10]; 125 g ai/ha): 0
Plant response rating, Ragweed ([10]; 500 g ai/ha): 0
Plant response rating, Corn (corn (Zea mays); 125 g ai/ha): 0
Plant response rating, Corn (corn (Zea mays); 500 g ai/ha): 0
Plant response rating, Rice (rice (Oryza sativa)): 0
Plant response rating, Pigweed ([11]; 125 g ai/ha): 0
Plant response rating, Pigweed ([11]; 500 g ai/ha): 0
Plant response rating, Foxtail, Giant ([12]; 125 g ai/ha): 0
Plant response rating, Foxtail, Giant ([12]; 500 g ai/ha): 0
Plant response rating, Barnyardgrass ([13]; 125 g ai/ha): 0
Plant response rating, Barnyardgrass ([13]; 500 g ai/ha): 0
Plant response rating, Blackgrass ([14]; 125 g ai/ha): 0
Plant response rating, Blackgrass ([14]; 500 g ai/ha): 0
Plant response rating, Pigweed ([15]; 125 g ai/ha): 0
Plant response rating, Pigweed ([15]; 500 g ai/ha): 0
Plant response rating, Ryegrass, Italian ([16]; 125 g ai/ha): 0
Plant response rating, Ryegrass, Italian ([16]; 500 g ai/ha): 0
Plant response rating, Kochia (kochia (Kochia scoparia) [17]; 125 g ai/ha): 0
Plant response rating, Kochia (kochia (Kochia scoparia) [17]; 500 g ai/ha): 0
Plant response rating, Barnyardgrass [18]: 0

O=C1NCC(c2ccc(F)c(F)c2)N1C(=O)Nc1ccccc1C(F)(F)F (stereo not drawn) [Compound 10]
Plant response rating, Ryegrass, Italian ([1]; 125 g ai/ha): 0
Plant response rating, Ryegrass, Italian ([1]; 500 g ai/ha): 0
Plant response rating, Sedge, Umbrella [2]: 0
Plant response rating, Kochia (kochia (Kochia scoparia) [3]; 125 g ai/ha): 0
Plant response rating, Kochia (kochia (Kochia scoparia) [3]; 500 g ai/ha): 0
Plant response rating, Galium ([4]; 125 g ai/ha): 0
Plant response rating, Galium ([4]; 500 g ai/ha): 0
Plant response rating, Foxtail, Giant ([5]; 125 g ai/ha): 0
Plant response rating, Foxtail, Giant ([5]; 500 g ai/ha): 40
Plant response rating, Ragweed ([6]; 125 g ai/ha): 0
Plant response rating, Ragweed ([6]; 500 g ai/ha): 0
Plant response rating, Barnyardgrass ([7]; 125 g ai/ha): 0
Plant response rating, Barnyardgrass ([7]; 500 g ai/ha): 0
Plant response rating, Ducksalad [8]: 0
Plant response rating, Wheat ([9]; 125 g ai/ha): 0
Plant response rating, Wheat ([9]; 500 g ai/ha): 0
Plant response rating, Ragweed ([10]; 125 g ai/ha): 0
Plant response rating, Ragweed ([10]; 500 g ai/ha): 0
Plant response rating, Corn (corn (Zea mays); 125 g ai/ha): 0
Plant response rating, Corn (corn (Zea mays); 500 g ai/ha): 0
Plant response rating, Rice (rice (Oryza sativa)): 0
Plant response rating, Pigweed ([11]; 125 g ai/ha): 0
Plant response rating, Pigweed ([11]; 500 g ai/ha): 0
Plant response rating, Foxtail, Giant ([12]; 125 g ai/ha): 20
Plant response rating, Foxtail, Giant ([12]; 500 g ai/ha): 60
Plant response rating, Barnyardgrass ([13]; 125 g ai/ha): 0
Plant response rating, Barnyardgrass ([13]; 500 g ai/ha): 0
Plant response rating, Blackgrass ([14]; 125 g ai/ha): 0
Plant response rating, Blackgrass ([14]; 500 g ai/ha): 0
Plant response rating, Pigweed ([15]; 125 g ai/ha): 0
Plant response rating, Pigweed ([15]; 500 g ai/ha): 0
Plant response rating, Ryegrass, Italian ([16]; 125 g ai/ha): 0
Plant response rating, Ryegrass, Italian ([16]; 500 g ai/ha): 0
Plant response rating, Kochia (kochia (Kochia scoparia) [17]; 125 g ai/ha): 0
Plant response rating, Kochia (kochia (Kochia scoparia) [17]; 500 g ai/ha): 0
Plant response rating, Barnyardgrass [18]: 0
